Experimental data: PubChem BioAssay AID342 (DTP/NCI, 2004)
“And” between values parts separate entries of the source, which are not always exact repeats. Equal entries are not always repeated.

Tested on: Swiss mice, Sarcoma 180 sc, mean tumor weight T/C
Assay: NCI In Vivo Anticancer Drug Screen. Data for tumor model Sarcoma 180 (subcutaneous) in Swiss mice
Details: endpoint: mean tumor weight, higher = larger tumour
How it was run: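 Antitumor activity is assessed in mice with transplantable tumors. Treated (T) and vehicle control (C) groups are compared on survival or tumor size.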

[1] = dose: 250.0 mg/kg/injection, schedule: Q01DX007 (sc), vehicle: steriod suspending solution

## OCC1OC(n2cnc3c(=S)nc[nH]c32)C(O)C1O (centres undefined)
dose: 10.7 mg/kg/injection, schedule: Q01DX007 (ip), vehicle: carboxymethylcellulose (CMC)
  T/C: 51 % of control
dose: 17.04 mg/kg/injection, schedule: Q01DX007 (ip), vehicle: carboxymethylcellulose (CMC)
  T/C: 61 % of control
dose: 20.0 mg/kg/injection, schedule: Q#A X014 (ip), vehicle: methylcellulose (MC)
  T/C: 63 % of control
dose: 21.3 mg/kg/injection, schedule: Q01DX007 (ip), vehicle: carboxymethylcellulose (CMC)
  T/C: 40 % of control and 64 % of control
dose: 28.4 mg/kg/injection, schedule: Q01DX007 (ip), vehicle: carboxymethylcellulose (CMC)
  T/C: 48 % of control
dose: 37.5 mg/kg/injection, schedule: Q#A X014 (ip), vehicle: methylcellulose (MC)
  T/C: 56 % of control
dose: 42.6 mg/kg/injection, schedule: Q01DX007 (ip), vehicle: carboxymethylcellulose (CMC)
  T/C: 42 % of control and 46 % of control
dose: 62.0 mg/kg/injection, schedule: Q01DX007 (ip), vehicle: carboxymethylcellulose (CMC)
  T/C: 44 % of control
dose: 75.0 mg/kg/injection, schedule: Q#A X014 (ip), vehicle: methylcellulose (MC)
  T/C: 22 % of control
dose: 85.2 mg/kg/injection, schedule: Q01DX007 (ip), vehicle: carboxymethylcellulose (CMC)
  T/C: 41 % of control and 44 % of control
dose: 100.0 mg/kg/injection, schedule: Q#A X014 (ip), vehicle: methylcellulose (MC)
  T/C: 20 % of control and 24 % of control
dose: 125.0 mg/kg/injection, schedule: Q01DX007 (ip), vehicle: carboxymethylcellulose (CMC)
  T/C: 59 % of control
dose: 250.0 mg/kg/injection, schedule: Q01DX007 (ip), vehicle: carboxymethylcellulose (CMC)
  T/C: 25 % of control
dose: 300.0 mg/kg/injection, schedule: Q01DX007 (ip), vehicle: carboxymethylcellulose (CMC)
  T/C: 21 % of control
dose: 400.0 mg/kg/injection, schedule: Q01DX007 (ip), vehicle: carboxymethylcellulose (CMC)
  T/C: 19 % of control
dose: 450.0 mg/kg/injection, schedule: Q01DX007 (ip), vehicle: carboxymethylcellulose (CMC)
  T/C: 11 % of control

## NC(=O)Nc1n[se]nc1C(=O)O
dose: 20.0 mg/kg/injection, schedule: Q01DX007 (ip), vehicle: saline
  T/C: 111 % of control
dose: 30.0 mg/kg/injection, schedule: Q01DX007 (ip), vehicle: saline
  T/C: 75 % of control

## CCC1OCCN1C(C)C (centres undefined)
dose: 20.0 mg/kg/injection, schedule: Q01DX007 (ip), vehicle: other
  T/C: 80 % of control
dose: 33.0 mg/kg/injection, schedule: Q01DX007 (ip), vehicle: other
  T/C: 75 % of control
dose: 55.5 mg/kg/injection, schedule: Q01DX007 (ip), vehicle: saline
  T/C: 79 % of control
dose: 56.0 mg/kg/injection, schedule: Q01DX007 (ip), vehicle: other
  T/C: 63 % of control
dose: 83.3 mg/kg/injection, schedule: Q01DX007 (ip), vehicle: saline
  T/C: 43 % of control
dose: 84.0 mg/kg/injection, schedule: Q01DX007 (ip), vehicle: other
  T/C: 49 % of control
dose: 125.0 mg/kg/injection, schedule: Q01DX007 (ip), vehicle: saline
  T/C: 21 % of control

## Cc1ccccn1
dose: 200.0 mg/kg/injection, schedule: Q01DX007 (ip), vehicle: saline
  T/C: 87 % of control
dose: 400.0 mg/kg/injection, schedule: Q01DX007 (ip), vehicle: saline
  T/C: 151 % of control

## CCCn1cnc2c(=S)nc[nH]c21
dose: 43.0 mg/kg/injection, schedule: Q01DX007 (ip), vehicle: carboxymethylcellulose (CMC)
  T/C: 75 % of control
dose: 61.0 mg/kg/injection, schedule: Q01DX007 (ip), vehicle: carboxymethylcellulose (CMC)
  T/C: 44 % of control
dose: 93.0 mg/kg/injection, schedule: Q01DX007 (ip), vehicle: carboxymethylcellulose (CMC)
  T/C: 35 % of control
dose: 140.0 mg/kg/injection, schedule: Q01DX007 (ip), vehicle: carboxymethylcellulose (CMC)
  T/C: 28 % of control

## Clc1ccc(C[P+](c2ccccc2)(c2ccccc2)c2ccccc2)cc1Cl
dose: 3.6 mg/kg/injection, schedule: Q01DX007 (ip), vehicle: carboxymethylcellulose (CMC)
  T/C: 66 % of control and 69 % of control
dose: 5.3 mg/kg/injection, schedule: Q01DX007 (ip), vehicle: carboxymethylcellulose (CMC)
  T/C: 63 % of control and 71 % of control
dose: 8.0 mg/kg/injection, schedule: Q01DX007 (ip), vehicle: carboxymethylcellulose (CMC)
  T/C: 46 % of control

## C[C@@H]1CC2=CC(=O)C=C[C@]2(C)[C@H]2CC[C@@]3(C)[C@@H](CC[C@]3(C)O)[C@H]12
dose: 111.0 mg/kg/injection, schedule: Q01DX007 (sc), vehicle: steriod suspending solution
  T/C: 61 % of control and 72 % of control
dose: 167.0 mg/kg/injection, schedule: Q01DX007 (sc), vehicle: steriod suspending solution
  T/C: 43 % of control and 62 % of control
[1]
  T/C: 57 % of control and 76 % of control
dose: 375.0 mg/kg/injection, schedule: Q01DX007 (sc), vehicle: steriod suspending solution
  T/C: 38 % of control and 42 % of control and 55 % of control
dose: 750.0 mg/kg/injection, schedule: Q01DX007 (sc), vehicle: steriod suspending solution
  T/C: 47 % of control and 69 % of control

## CC[C@H](c1ccc(O)cc1)[C@@H](CC)c1ccc(O)cc1
dose: 3.8 mg/kg/injection, schedule: Q01DX007 (sc), vehicle: steriod suspending solution
  T/C: 186 % of control
dose: 7.5 mg/kg/injection, schedule: Q01DX007 (sc), vehicle: steriod suspending solution
  T/C: 67 % of control
dose: 15.0 mg/kg/injection, schedule: Q01DX007 (sc), vehicle: steriod suspending solution
  T/C: 37 % of control and 43 % of control
dose: 62.0 mg/kg/injection, schedule: Q01DX007 (sc), vehicle: steriod suspending solution
  T/C: 49 % of control and 67 % of control
dose: 125.0 mg/kg/injection, schedule: Q01DX007 (sc), vehicle: steriod suspending solution
  T/C: 40 % of control and 43 % of control
[1]
  T/C: 54 % of control

## O=C(O)c1ccc(-c2ccccc2)cc1
dose: 50.0 mg/kg/injection, schedule: Q01DX007 (ip), vehicle: carboxymethylcellulose (CMC)
  T/C: 95 % of control
dose: 100.0 mg/kg/injection, schedule: Q01DX007 (ip), vehicle: carboxymethylcellulose (CMC)
  T/C: 118 % of control
dose: 200.0 mg/kg/injection, schedule: Q01DX007 (ip), vehicle: carboxymethylcellulose (CMC)
  T/C: 120 % of control

## O=C(O)C(=O)O.O=C([O-])C(=O)O.O=C([O-])C(=O)O.O=C([O-])C(=O)[O-].[K+].[U]
dose: 7.5 mg/kg/injection, schedule: Q#A X014 (ip), vehicle: saline
  T/C: 51 % of control and 59 % of control
dose: 11.25 mg/kg/injection, schedule: Q#A X014 (ip), vehicle: saline
  T/C: 21 % of control

## C[C@]12CCC(=O)C=C1CC[C@@H]1[C@@H]2[C@@H](O)C[C@@]2(C)[C@H]1CC[C@]2(O)C(=O)COC(=O)c1ccc([N+](=O)[O-])cc1Cl
dose: 12.5 mg/kg/injection, schedule: Q#A X014 (sc), vehicle: steriod suspending solution
  T/C: 79 % of control
dose: 25.0 mg/kg/injection, schedule: Q#A X014 (sc), vehicle: steriod suspending solution
  T/C: 67 % of control
dose: 50.0 mg/kg/injection, schedule: Q#A X014 (sc), vehicle: steriod suspending solution
  T/C: 38 % of control
dose: 100.0 mg/kg/injection, schedule: Q#A X014 (sc), vehicle: steriod suspending solution
  T/C: 32 % of control

## C[C@]12CC[C@@H]3c4ccc(OC5CCCCO5)cc4CC[C@H]3[C@@H]1CC[C@@H]2O (some centres undefined)
dose: 111.0 mg/kg/injection, schedule: Q01DX007 (ip), vehicle: steriod suspending solution
  T/C: 55 % of control
dose: 166.6 mg/kg/injection, schedule: Q01DX007 (ip), vehicle: steriod suspending solution
  T/C: 20 % of control
dose: 250.0 mg/kg/injection, schedule: Q01DX007 (ip), vehicle: steriod suspending solution
  T/C: 24 % of control
dose: 375.0 mg/kg/injection, schedule: Q01DX007 (ip), vehicle: steriod suspending solution
  T/C: 17 % of control

## Cc1ccc(N=NN(C)C)cc1
dose: 9.8 mg/kg/injection, schedule: Q01DX007 (ip), vehicle: carboxymethylcellulose (CMC)
  T/C: 86 % of control
dose: 14.8 mg/kg/injection, schedule: Q01DX007 (ip), vehicle: carboxymethylcellulose (CMC)
  T/C: 70 % of control
dose: 15.0 mg/kg/injection, schedule: Q01DX007 (ip), vehicle: carboxymethylcellulose (CMC)
  T/C: 62 % of control
dose: 16.65 mg/kg/injection, schedule: Q#A X014 (ip), vehicle: carboxymethylcellulose (CMC)
  T/C: 45 % of control
dose: 22.2 mg/kg/injection, schedule: Q01DX007 (ip), vehicle: carboxymethylcellulose (CMC)
  T/C: 49 % of control
dose: 25.0 mg/kg/injection, schedule: Q#A X014 (ip), vehicle: carboxymethylcellulose (CMC)
  T/C: 43 % of control
dose: 33.3 mg/kg/injection, schedule: Q01DX007 (ip), vehicle: carboxymethylcellulose (CMC)
  T/C: 60 % of control
dose: 37.5 mg/kg/injection, schedule: Q#A X014 (ip), vehicle: carboxymethylcellulose (CMC)
  T/C: 30 % of control
dose: 56.0 mg/kg/injection, schedule: Q#A X014 (ip), vehicle: carboxymethylcellulose (CMC)
  T/C: 14 % of control
dose: 56.25 mg/kg/injection, schedule: Q#A X014 (ip), vehicle: methylcellulose (MC)
  T/C: 36 % of control and 38 % of control
dose: 115.0 mg/kg/injection, schedule: Q01DX007 (ip), vehicle: carboxymethylcellulose (CMC)
  T/C: 34 % of control
